Activity calls are given as the source filed them. The rule behind the calls is not given here.
Tests used:
Plasmodium falciparum [1] = assay: Antiplasmodial activity against synchronized ring stage Plasmodium falciparum 3D7 infected in human erythrocytes assessed as new ring stage formation at 10 times IC50 incubated for 12 hrs followed by compound washout and measured at 50 hrs by […] analysis; format: functional, organism-based; details: Erythrocyte
Plasmodium berghei = assay: Antiplasmodial activity against liver stage Plasmodium berghei infected in Balb/c mouse assessed as reduction in parasitemia at 30 mg/kg, ip administered as single dose and measured upto 96 hrs by microscopic analysis; format: functional, organism-based; details: time hrs <=96
[2] = Selectivity index, ratio of IC50 for cytotoxicity against human HepG2 cells assessed to IC50 for antiplasmodial activity against synchronized ring stage Plasmodium falciparum 3D7 infected in human erythrocytes; format: toxicity, cell-based; details: read-out: Ratio IC50
[3] = Half life in mouse liver microsomes incubated upto 45 mins in presence of NADPH by LC-MS/MS analysis; format: ADME, Microsome
Plasmodium falciparum [4] = assay: Antiplasmodial activity against artemisinin-resistant Plasmodium falciparum 6218 assessed as reduction in parasite survival at 700 nM incubated for 6 hrs followed by compound washout thrice and further cultured in compound free medium for 66 hrs by RSA; format: functional, organism-based
[5] = Clearance in mouse liver microsomes incubated upto 45 mins in presence of NADPH by LC-MS/MS analysis; format: ADME, Microsome; details: read-out: CLH
Plasmodium falciparum [6] = assay: Antiplasmodial activity against Plasmodium falciparum GB4 infected in human erythrocytes assessed as reduction in parasite growth incubated for 72 hrs by Giemsa staining based light microscopic method; format: functional, organism-based; details: GB4, Erythrocyte
Plasmodium falciparum [7] = assay: Antiplasmodial activity against synchronized ring stage Plasmodium falciparum 3D7 infected in human erythrocytes assessed as reduction in parasite growth incubated for 72 hrs by Giemsa staining based light microscopic method; format: functional, organism-based; details: 3D7, Erythrocyte
Plasmodium falciparum [8] = assay: Antiplasmodial activity against Plasmodium falciparum CP286 infected in human erythrocytes assessed as reduction in parasite growth incubated for 72 hrs by Giemsa staining based light microscopic method; format: functional, organism-based; details: CP286, Erythrocyte
[9] = Toxicity in Balb/c mouse infected with blood stage Plasmodium yoelii assessed as recrudescence at 10 to 30 mg/kg, ip QD for 5 consecutive days and measured on day 20; format: organism-based; details: in vivo, 120 h, dose 10-30 mg/kg, time 5 day
[10] = Apparent clearance during terminal phase in Balb/c mouse at 2 mg/kg, iv administered as single dose measured upto 24 hrs by LC-MS/MS analysis; format: ADME, organism-based; details: in vivo
[11] = target: T1, NAD-dependent protein deacetylase sirtuin-2 (Homo sapiens, UniProt Q8IXJ6); assay: Inhibition of human C-terminal His-tagged SIRT2 (50 to 356 residues) expressed in Escherichia coli using Ac-peptide as substrate preincubated for 15 mins followed by substrate addition and incubated for 240 mins followed by trypsin addition and further incubated for 120 mins
T1 sequence (Q8IXJ6 whole entry): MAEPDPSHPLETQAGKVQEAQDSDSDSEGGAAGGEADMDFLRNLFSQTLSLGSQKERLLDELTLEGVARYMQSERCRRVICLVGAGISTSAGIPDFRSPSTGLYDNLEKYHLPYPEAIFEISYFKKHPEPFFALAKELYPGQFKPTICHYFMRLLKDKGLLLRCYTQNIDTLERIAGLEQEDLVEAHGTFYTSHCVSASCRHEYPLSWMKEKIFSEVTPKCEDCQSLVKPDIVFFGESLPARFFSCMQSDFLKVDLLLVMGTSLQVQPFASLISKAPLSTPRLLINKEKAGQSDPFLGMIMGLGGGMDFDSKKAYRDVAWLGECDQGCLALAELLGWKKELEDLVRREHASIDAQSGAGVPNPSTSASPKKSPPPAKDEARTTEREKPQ

[12] = Inhibition of recombinant full length C-terminal His/FLAG-tagged Plasmodium falciparum HDAC1 expressed in baculovirus infected sf9 insect cells using fluorogenic […] as substrate preincubated for 1.5 hrs followed by substrate addition and measured after 30 mins by HDAC-GloI/II assay
Histone deacetylase 2 = Histone deacetylase 2 (Homo sapiens, UniProt Q92769); assay: Inhibition of human HDAC2 expressed in Sf9 cells using Ac-peptide as substrate preincubated for 15 mins followed by substrate and trypsin addition and further incubated for 60 mins
Plasmodium falciparum [13] = assay: (§1) Antimalarial activity against synchronized schizont stage transgenic Plasmodium falciparum 3D7 with C-terminal 3xTY1-fused HDAC1 knockdown assessed as parasite growth inhibition pretreated with glucosamine followed by compound treatment and incubated for 4 hrs followed by compound washout for thrice and subsequent culturing for 68 hrs by SYBR Green 1 staining based analysis; format: functional, organism-based
Plasmodium falciparum [14] = assay: as §1, with “glmS-fused HDAC2” for “3xTY1-fused HDAC1”; format: functional, organism-based
Plasmodium falciparum [15] = assay: Inhibition of Plasmodium falciparum HDAC assessed as hyperacetylation of histone H3 at 20 times IC50 incubated for 4 hrs by Western blot analysis
Plasmodium falciparum [16] = assay: Antiplasmodial activity against schizont stage Plasmodium falciparum 3D7 infected in human erythrocytes assessed as reduction in parasitemia at 10 times IC50 incubated for 12 hrs followed by compound washout and measured at 96 hrs post infection by […] analysis; format: functional, organism-based; details: Erythrocyte

Chain of Histone deacetylase 2 (Q92769 whole entry, the tested form may be a part): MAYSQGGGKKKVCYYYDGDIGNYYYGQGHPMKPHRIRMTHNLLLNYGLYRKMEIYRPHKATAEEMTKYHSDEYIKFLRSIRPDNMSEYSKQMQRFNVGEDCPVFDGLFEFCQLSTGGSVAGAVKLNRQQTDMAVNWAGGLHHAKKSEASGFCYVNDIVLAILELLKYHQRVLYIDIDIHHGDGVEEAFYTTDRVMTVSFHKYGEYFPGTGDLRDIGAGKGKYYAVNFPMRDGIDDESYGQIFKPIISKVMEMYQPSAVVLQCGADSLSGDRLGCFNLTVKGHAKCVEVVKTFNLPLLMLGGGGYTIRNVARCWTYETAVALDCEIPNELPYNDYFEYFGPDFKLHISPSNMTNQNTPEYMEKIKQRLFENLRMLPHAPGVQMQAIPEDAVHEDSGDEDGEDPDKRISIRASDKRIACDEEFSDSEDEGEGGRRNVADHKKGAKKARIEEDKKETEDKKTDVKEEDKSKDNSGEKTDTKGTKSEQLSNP

Cl.O=C(NO)c1cnc(N2CCC3(CCN(Cc4c[nH]c5ccccc45)C3)CC2)nc1
Activity (Plasmodium falciparum [1]): Active
Activity (Plasmodium berghei): Active
selectivity ratio [2]: 83
half-life [3]: 45 min
Activity (Plasmodium falciparum [4]): Active
CLint scaled [5]: 121 mL/min/kg
IC50 (Plasmodium falciparum [6]): 3.9 nM
IC50 (Plasmodium falciparum [7]): 3.19 nM
IC50 (Plasmodium falciparum [8]): 4.26 nM
Activity [9]: Toxic
CLz/F [10]: 280 mL/min/kg
IC50 [11]: > 10000 nM
IC50 [12]: 0.343 nM
IC50 (Histone deacetylase 2): 1.8 nM
IC50 (Plasmodium falciparum [13]): 32.3 nM
IC50 (Plasmodium falciparum [14]): 69.5 nM
inhibition (Plasmodium falciparum [15]): Active
Activity (Plasmodium falciparum [16]): Active

Source: ChEMBL document CHEMBL4706683 (J Med Chem, 2021)
